Results taken from US8637237B2, “Methods, compositions, and systems for the identification of species-specific or developmental stage-specific insecticides” (The University of North Carolina at Greensboro, priority 2003, dated 2014).

Target: T1, EcRB1/USP (Drosophila melanogaster, UniProt P34021)
T1 construct: The plasmid encodes a version of EcRB1 that includes 878 amino acids, and deletes the F domain; expressed in transfected cells; host or cells: CHO
T1 sequence (P34021 1-878): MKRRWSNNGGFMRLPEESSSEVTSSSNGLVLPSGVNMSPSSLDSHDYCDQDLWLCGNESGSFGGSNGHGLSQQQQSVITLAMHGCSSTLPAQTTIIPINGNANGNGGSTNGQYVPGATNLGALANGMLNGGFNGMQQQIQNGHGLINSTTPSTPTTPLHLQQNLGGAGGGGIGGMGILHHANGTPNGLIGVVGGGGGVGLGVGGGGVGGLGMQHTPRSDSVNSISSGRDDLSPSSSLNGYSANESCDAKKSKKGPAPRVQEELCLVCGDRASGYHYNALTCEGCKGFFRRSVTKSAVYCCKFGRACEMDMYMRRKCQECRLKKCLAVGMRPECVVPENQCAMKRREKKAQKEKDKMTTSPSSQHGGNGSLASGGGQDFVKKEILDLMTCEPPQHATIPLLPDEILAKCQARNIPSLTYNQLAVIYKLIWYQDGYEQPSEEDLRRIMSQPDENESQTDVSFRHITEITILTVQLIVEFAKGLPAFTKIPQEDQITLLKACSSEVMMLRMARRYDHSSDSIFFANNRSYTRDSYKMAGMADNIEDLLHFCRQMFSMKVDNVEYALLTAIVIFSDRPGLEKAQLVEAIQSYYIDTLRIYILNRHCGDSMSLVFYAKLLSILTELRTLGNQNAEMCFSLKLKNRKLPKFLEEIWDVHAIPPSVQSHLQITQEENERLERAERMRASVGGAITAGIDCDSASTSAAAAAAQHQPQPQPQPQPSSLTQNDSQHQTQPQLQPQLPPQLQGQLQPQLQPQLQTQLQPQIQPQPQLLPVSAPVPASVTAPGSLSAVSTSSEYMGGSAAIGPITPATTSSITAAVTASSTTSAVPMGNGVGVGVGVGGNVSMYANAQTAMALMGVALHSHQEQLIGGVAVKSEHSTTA
T1 sequence (O76202 192-472 partner): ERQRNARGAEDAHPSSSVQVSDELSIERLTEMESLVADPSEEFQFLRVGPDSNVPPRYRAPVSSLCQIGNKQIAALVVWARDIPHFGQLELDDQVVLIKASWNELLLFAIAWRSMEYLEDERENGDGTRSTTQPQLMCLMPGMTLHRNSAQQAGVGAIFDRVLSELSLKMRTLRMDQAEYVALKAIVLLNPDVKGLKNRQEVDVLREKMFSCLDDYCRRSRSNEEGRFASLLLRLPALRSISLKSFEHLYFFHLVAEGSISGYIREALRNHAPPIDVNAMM
Assay: EcRB1 isoform with USP (VP16CfUSP), (EcRE)5-ΔMTV-LUC in CHO cells
Assay type: cell-based
Method: These experiments employed a mammalian cell culture system using Chinese hamster ovary cells (CHO) to evaluate the transcriptional function of Drosophila melanogaster EcR and USP using methods described previously (U.S. Patent Application Publication No: 2005/0049230; Henrich et al, 2003). Cells were seeded in 6-well polypropylene culture plates (Falcon) with 10^5 cells per well on the day prior to transfection. Transfection was subsequently performed using either calcium phosphate (Kitareewan et al., 1996, Mol. Biol. Cell, 7:1153-1196) or a GenePorter reagent (Gene Therapy Systems, Inc; San Diego, Calif.) following manufacturer's protocols. Each well received 1.25 μg of (EcRE)5-ΔMTV-CAT (five copies of the hsp27 EcRE inserted into an mouse mammary tumor virus (MTV) promoter upstream of the chloramphenicol acetyltransferase (CAT) gene) or (EcRE)5-ΔMTV-LUC (the same promoter attached to firefly luciferase), 1.25 μg of pCH111 (SV40 early promoter linked to the β-galactosidase gene) to normalize CAT activity, and 0.25 μg of each expression plasmid (EcR, FXR, RXR, USP) that was tested. The cells were incubated with plasmid DNA for seven hours and then washed with 1×PBS. Muristerone A (murA; Alexis Biochemicals) or 20-hydroxyecdysone (20E; Sigma) dissolved in ethanol to a concentration of 10 mM was diluted as necessary to the final assay concentration (FAC) in 2 ml of fresh incubation medium that was then applied to the cells. Similarly, JHIII (Sigma) was dissolved in dimethyl sulfoxide (DMSO) to a concentration of […] and diluted into the incubation medium to its final assay concentration (20, 40, 80, 160 μM). […] A corresponding volume of ethanol and DMSO were added to control cells for all experiments. For all experiments, the cells were allowed to incubate with the medium for 24 hours before collection and cell lysates were prepared by described methods (Kitareewan et al., 1996). Both β-galactosidase and CAT reporter activity were measured based on previously used methods (Kitareewan et al, 1996). Luciferase assays using luciferrin followed the specifications of the manufacturer.
Transcriptional activity, measured as ^14C-chloramphenicol counts (for measuring CAT activity) or relative luciferase activity (RLU) was quantified for each cell lysate. The counts were then normalized by adjusting for differences in β-galactosidase activity, since β-galactosidase expression is controlled by a constitutive promoter and provides an estimate of cell mass. Data were normalized as fold-induction based on differences in reporter gene activity between hormonally treated and control cells.

CC(C)(O)CC[C@@H](O)[C@](C)(O)[C@H]1CC[C@@]2(O)C3=CC(=O)[C@@H]4C[C@@H](O)[C@@H](O)C[C@]4(C)[C@H]3CC[C@]12C [20E, 20-hydroxyecdysone]
transcriptional response to 20E (EcRB1 + VP16CfUSP, 10 μM 20E): consistent and discernible transcriptional response | 20E (inducibility) (EcRB1/USP, 10 μM 20E): + ((+) designates a change in transcriptional level that exceeds 2.5-fold)

COC(=O)/C=C(\C)CC/C=C(\C)CC[C@H]1OC1(C)C [JHIII, juvenile hormone III]
potentiation of murA response by JHIII (EcRB1 + VP16CfUSP, 80 μM JHIII with 0.1 μM murA): potentiated | MurA + JHIII (JHIII potentiation) (EcRB1/USP, 0.1 μM murA + 80 μM JHIII): + ((+) indicates observed potentiation that exceeds 2-fold above the levels observed with ecdysteroid alone)

CC(C)CC[C@@H](O)[C@](C)(O)[C@H]1CC[C@@]2(O)C3=CC(=O)[C@]4(O)C[C@@H](O)[C@@H](O)C[C@]4(C)[C@H]3[C@H](O)C[C@]12C [murA, muristerone A]
induction by murA (EcRB1 + VP16CfUSP, 1 μM murA): 30-40 fold | MurA (inducibility) (EcRB1/USP, 0.1 μM murA): + ((+) designates a change in transcriptional level that exceeds 2.5-fold)
